The test system of data set [1] is Hepatitis C virus. It is filed as functional, Hepacivirus hominis, genotype 2a (JFH-AM71), Huh7-J20. The settings on record: dose 100 µM; time 72 hrs.
For data set [2], the system named is Zika virus. It is filed as functional, H/PAN/2016/BEI-259634, Vero.
Data set [3] is described as follows: in vitro. The settings on record: human, Huh7-J20 cells.
Data set [4] deals with Hepatitis C virus. The data set can be described thus: microbe, parasite or virus in culture. Particulars: genotype 2a (JFH-AM71), Huh7-J20, 72 h.
Data set [5] concerns Zika virus. It is filed as functional, H/PAN/2016/BEI-259634, Huh7.5.
Data set [6] can be described thus: in vitro. Particulars: monkey, Vero cells.
A short description of data set [7]: in vitro. Particulars: human, Huh7.5 cells.
For data set [8], the system named is Zika virus. The data set can be described thus: microbe, parasite or virus in culture. The settings on record: H/PAN/2016/BEI-259634, Huh7.5, 72 h.
For data set [9], the system named is Zika virus. The data set can be described thus: microbe, parasite or virus in culture. The settings on record: H/PAN/2016/BEI-259634, Vero, 72 h.
The subject of data set [10] is Hepatitis C virus. It is filed as functional, Hepacivirus hominis, genotype 2a (JFH-AM71), Huh7-J20. The settings on record: dose 0.045 µM; time 72 hrs.
Data set [11] relates to Zika virus. In kind it is functional, H/PAN/2016/BEI-259634, Huh7.5. The settings on record: dose 50-100 µM; time 3 day; at 50 to 100 µM.
Data set [12] deals with Zika virus. In kind it is functional, H/PAN/2016/BEI-259634, Vero. The settings on record: dose 50-100 µM; time 3 day; at 50 to 100 µM.
Setting [13] is: H/PAN/2016/BEI-259634, Huh7.5, dose 100.0 µM, time 3.0 day.

Structures are written as SMILES. Activity calls are given as the source filed them. No cut-off for these calls is given here. Numbered stars: 1 amine (or outer) side, 2 acyl side, 3 side chain; on linkers, the order of the positions; unused ones are H or OH. Peptide text beside a SMILES is read from it. * marks the point of attachment. X1 = NC(=O)c1n[nH]nc1[C@@H]1O[C@H](COC(=O)CCC(=O)NCCCOCCOCCOCCCN*)[C@@H](O)[C@H]1O; Suc = O=C(CCC(=O)[*:2])[*:1]

As for `NC(=O)c1n[nH]nc1[C@@H]1O[C@H](CO)[C@@H](O)[C@H]1O`, the Activity is recorded as 60% in the data set on Hepatitis C virus [1] and 20% in the data set on Zika virus [2] (dose 100 µM, time 3 day). The selectivity ratio in the data set “in vitro [3]” turned out to be 15.7. In the data set on Hepatitis C virus [4], it took 68 µM to reach half-maximal inhibition (IC50).

As to `O=C(NCCCO)c1n[nH]nc1[C@@H]1O[C@H](CO)[C@@H](O)[C@H]1O`, the Activity with Hepatitis C virus [1] is recorded as 45%; in the data set with Zika virus [2] (dose 100 µM, time 3 day), 20%. Also, in “in vitro [3]”, the selectivity ratio turned out to be 13.4. 68 µM corresponded to half-maximal inhibition with Hepatitis C virus [4] (IC50).

`NC(=O)c1ncn([C@@H]2O[C@H](CO)[C@@H](O)[C@H]2O)n1` [RIBAVIRIN]: the Activity with Hepatitis C virus [1] stood at 80%; in the data set with Zika virus [5] (dose 100 µM, time 3 day), 80%; in the data set on Zika virus [2] (dose 100 µM, time 3 day), 80%. The selectivity ratio in “in vitro [3]” is 46.8; in the data set “in vitro [6]” it was 41.6; in “in vitro [7]”, 240. In addition, the IC50 with Hepatitis C virus [4] was 21.8 µM; in the data set on Zika virus [8], 6.9 µM; in the data set with Zika virus [9] it was 29.9 µM.

On to `CC(=O)OC[C@H]1O[C@@H](c2n[nH]nc2C(N)=O)[C@H](OC(C)=O)[C@@H]1OC(C)=O`, for which, in the data set with Zika virus [5] (setting [13]), the result was Active.

In the case of `N=C(N)NCCC[C@H](NC(=O)[C@H](CCCNC(=N)N)NC(=O)[C@H](CCCNC(=N)N)NC(=O)[C@H](CCC(N)=O)NC(=O)[C@H](CCCNC(=N)N)NC(=O)[C@H](CCCNC(=N)N)NC(=O)[C@H](CCCCN)NC(=O)[C@H](CCCCN)NC(=O)[C@H](CCCNC(=N)N)NC(=O)CNC(=O)[C@H](Cc1ccc(O)cc1)NC(=O)CCC(=O)NCCCOCCOCCOCCCNC(=O)CCC(=O)OC[C@H]1O[C@@H](c2n[nH]nc2C(N)=O)[C@H](O)[C@@H]1O)C(N)=O`, the Activity with Hepatitis C virus [10] amounted to 45%.

As for `O=C(NO)c1n[nH]nc1[C@@H]1O[C@H](CO)[C@@H](O)[C@H]1O`, the figures for the Activity in the data set on Hepatitis C virus [1], with Zika virus [11] and with Zika virus [12] were 67%, 70% and 70%, respectively. Also, the Activity entry is “Active” in the data set with Zika virus [5] (setting [13]) and “Active” in the data set on Zika virus [2] (H/PAN/2016/BEI-259634, Vero, dose 100.0 µM, time 3.0 day). Besides, the selectivity ratio was 16.8 in the data set “in vitro [3]”, 29.1 in “in vitro [6]” and 23.8 in the data set “in vitro [7]”. In addition, the figures for the IC50 with Hepatitis C virus [4], in the data set on Zika virus [8] and in the data set on Zika virus [9] were 49.1 µM, 37.3 µM and 33.2 µM, respectively.

Molecule `CCCNC(=O)c1n[nH]nc1[C@@H]1O[C@H](CO)[C@@H](O)[C@H]1O` registered an Activity in the data set with Hepatitis C virus [1] of 45%. Further, the outcome with Zika virus [5] (setting [13]) was Active. Moreover, the selectivity ratio in “in vitro [3]” was 7.3. In the data set with Hepatitis C virus [4], this molecule came in with an IC50 of 100 µM.

In the data set with Hepatitis C virus [10], `CC[C@H](C)[C@H](NC(=O)[C@H](Cc1cnc[nH]1)NC(=O)[C@H](Cc1c[nH]c2ccccc12)NC(=O)[C@H](CO)NC(=O)CCC(=O)NCCCOCCOCCOCCCNC(=O)CCC(=O)OC[C@H]1O[C@@H](c2n[nH]nc2C(N)=O)[C@H](O)[C@@H]1O)C(=O)N[C@@H](CC(N)=O)C(=O)N[C@@H](CCCNC(=N)N)C(=O)N[C@H](C(=O)N[C@@H](C)C(=O)N[C@@H](CC(C)C)C(=O)N[C@@H](CC(N)=O)C(=O)N[C@@H](CO)C(=O)N[C@@H](CC(N)=O)C(=O)N[C@@H](CC(=O)O)C(=O)N[C@@H](CO)C(N)=O)[C@@H](C)O` ({X1-Suc}-SWHINRTALNSNDS-NH2) came in with an Activity of 45%.

Source of the values: ChEMBL document CHEMBL5126587 (Bioorg Med Chem, 2022).
